Experiment [1] addresses Casein kinase I isoform gamma-3 (Homo sapiens) (UniProt Q9Y6M4). As to the kind of experiment: Inhibition of CK1gamma3 (unknown origin) at 10 uM after 120 mins P33 radiolabeled kinase activity assay.
Experiment [2] concerns the target Cyclin-dependent kinase 5/CDK5 activator 1 (Homo sapiens) (UniProt Q00535+Q15078). Put plainly: Inhibition of CDK5/p35 (unknown origin) at 10 uM after 120 mins P33 radiolabeled kinase activity assay. The class given is protein-complex assay.
Experiment [3] addresses Calcium/calmodulin-dependent protein kinase type 1 (Homo sapiens) (UniProt Q14012). Put plainly: Inhibition of CAMK1alpha (unknown origin) at 10 uM after 120 mins P33 radiolabeled kinase activity assay.
For experiment [4], the target named is Mitogen-activated protein kinase 1 (Homo sapiens) (UniProt P28482). Put plainly: Inhibition of ERK2 (unknown origin) at 10 uM after 120 mins P33 radiolabeled kinase activity assay.
Sequence of Mitogen-activated protein kinase 1 (Homo sapiens) (P28482 whole entry): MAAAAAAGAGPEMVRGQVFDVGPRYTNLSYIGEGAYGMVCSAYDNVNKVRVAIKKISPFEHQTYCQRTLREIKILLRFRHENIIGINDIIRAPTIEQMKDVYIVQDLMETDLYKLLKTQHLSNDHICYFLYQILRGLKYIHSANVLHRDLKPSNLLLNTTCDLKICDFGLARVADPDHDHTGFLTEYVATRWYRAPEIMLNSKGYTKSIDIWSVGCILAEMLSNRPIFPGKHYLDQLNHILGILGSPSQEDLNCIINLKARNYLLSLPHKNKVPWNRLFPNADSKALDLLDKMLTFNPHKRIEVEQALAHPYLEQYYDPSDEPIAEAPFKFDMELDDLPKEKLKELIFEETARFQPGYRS
Experiment [5] concerns the target Tyrosine-protein kinase HCK (Homo sapiens) (UniProt P08631). As to the kind of experiment: Inhibition of HCK (unknown origin) at 10 uM after 120 mins P33 radiolabeled kinase activity assay.
The target of experiment [6] is Serine/threonine-protein kinase PAK 3 (Homo sapiens) (UniProt O75914). Put plainly: Inhibition of PAK3 (unknown origin) at 10 uM after 120 mins P33 radiolabeled kinase activity assay.
Sequence of Serine/threonine-protein kinase PAK 3 (Homo sapiens) (O75914 whole entry, looked up): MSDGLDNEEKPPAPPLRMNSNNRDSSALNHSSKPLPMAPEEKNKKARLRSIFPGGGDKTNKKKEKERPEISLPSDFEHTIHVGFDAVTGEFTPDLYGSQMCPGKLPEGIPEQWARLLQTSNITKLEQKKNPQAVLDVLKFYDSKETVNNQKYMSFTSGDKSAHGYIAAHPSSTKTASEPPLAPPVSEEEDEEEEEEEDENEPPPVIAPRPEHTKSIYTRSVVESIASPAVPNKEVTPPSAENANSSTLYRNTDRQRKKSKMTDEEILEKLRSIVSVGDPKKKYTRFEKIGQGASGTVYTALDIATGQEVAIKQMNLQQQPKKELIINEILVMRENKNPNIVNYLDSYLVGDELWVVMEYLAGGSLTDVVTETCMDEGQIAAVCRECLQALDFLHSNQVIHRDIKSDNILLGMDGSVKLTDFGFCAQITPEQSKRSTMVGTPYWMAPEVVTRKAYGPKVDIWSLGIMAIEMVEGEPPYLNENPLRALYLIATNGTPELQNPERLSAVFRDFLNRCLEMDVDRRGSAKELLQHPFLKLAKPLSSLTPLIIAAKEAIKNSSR
In experiment [7] the target is Tyrosine-protein kinase FRK (Homo sapiens) (UniProt P42685). Put plainly: Inhibition of FRK (unknown origin) at 10 uM after 120 mins P33 radiolabeled kinase activity assay.
Sequence of Tyrosine-protein kinase FRK (Homo sapiens) (P42685 whole entry): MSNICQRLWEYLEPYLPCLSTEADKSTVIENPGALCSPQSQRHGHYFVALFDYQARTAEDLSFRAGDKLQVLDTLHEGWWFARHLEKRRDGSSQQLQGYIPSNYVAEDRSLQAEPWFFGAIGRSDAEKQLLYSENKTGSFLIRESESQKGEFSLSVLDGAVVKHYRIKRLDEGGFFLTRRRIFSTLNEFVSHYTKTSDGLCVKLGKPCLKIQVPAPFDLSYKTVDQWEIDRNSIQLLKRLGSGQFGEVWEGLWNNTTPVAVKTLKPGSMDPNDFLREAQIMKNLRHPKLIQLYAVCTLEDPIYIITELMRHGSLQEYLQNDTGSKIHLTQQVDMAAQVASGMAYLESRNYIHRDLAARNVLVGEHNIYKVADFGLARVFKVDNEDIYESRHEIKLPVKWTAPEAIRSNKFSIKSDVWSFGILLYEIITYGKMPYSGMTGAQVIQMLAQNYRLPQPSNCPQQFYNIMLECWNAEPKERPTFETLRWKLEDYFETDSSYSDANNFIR
The target of experiment [8] is cAMP-dependent protein kinase catalytic subunit gamma (Homo sapiens) (UniProt P22612). As to the kind of experiment: Inhibition of PKAcgamma (unknown origin) at 10 uM after 120 mins P33 radiolabeled kinase activity assay.
Sequence of cAMP-dependent protein kinase catalytic subunit gamma (Homo sapiens) (P22612 2-351 limits assumed): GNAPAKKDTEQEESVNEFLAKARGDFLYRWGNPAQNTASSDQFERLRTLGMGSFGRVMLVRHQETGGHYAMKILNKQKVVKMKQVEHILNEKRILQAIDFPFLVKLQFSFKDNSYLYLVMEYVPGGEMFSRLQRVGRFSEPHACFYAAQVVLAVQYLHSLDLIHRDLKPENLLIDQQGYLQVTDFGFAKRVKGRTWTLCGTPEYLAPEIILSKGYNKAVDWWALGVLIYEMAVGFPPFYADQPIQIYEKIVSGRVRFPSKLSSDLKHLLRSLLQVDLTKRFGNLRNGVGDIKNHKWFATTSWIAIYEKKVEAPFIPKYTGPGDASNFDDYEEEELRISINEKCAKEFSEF
The target of experiment [9] is T1, MAP kinase-activated protein kinase 5 (Homo sapiens) (UniProt Q8IW41).
T1 sequence (whole entry): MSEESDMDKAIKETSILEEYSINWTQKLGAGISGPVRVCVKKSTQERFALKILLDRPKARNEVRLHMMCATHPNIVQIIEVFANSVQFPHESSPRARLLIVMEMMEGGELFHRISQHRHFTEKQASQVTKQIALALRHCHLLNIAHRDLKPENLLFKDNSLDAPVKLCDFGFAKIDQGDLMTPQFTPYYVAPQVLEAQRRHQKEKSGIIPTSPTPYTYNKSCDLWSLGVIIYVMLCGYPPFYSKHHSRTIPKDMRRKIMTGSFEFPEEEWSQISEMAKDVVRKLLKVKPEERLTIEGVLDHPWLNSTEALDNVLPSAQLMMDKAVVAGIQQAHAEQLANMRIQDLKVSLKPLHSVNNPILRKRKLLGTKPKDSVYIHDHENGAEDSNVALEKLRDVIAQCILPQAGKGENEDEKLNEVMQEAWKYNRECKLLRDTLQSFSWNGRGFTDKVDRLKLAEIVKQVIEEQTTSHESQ
Put plainly: Inhibition of MAPKAPK5 (unknown origin) at 10 uM after 120 mins P33 radiolabeled kinase activity assay.

Experiment [10] deals with Death-associated protein kinase 2 (Homo sapiens) (UniProt Q9UIK4). As to the kind of experiment: Inhibition of DAPK2 (unknown origin) at 10 uM after 120 mins P33 radiolabeled kinase activity assay.
Sequence of Death-associated protein kinase 2 (Homo sapiens) (Q9UIK4 whole entry, looked up): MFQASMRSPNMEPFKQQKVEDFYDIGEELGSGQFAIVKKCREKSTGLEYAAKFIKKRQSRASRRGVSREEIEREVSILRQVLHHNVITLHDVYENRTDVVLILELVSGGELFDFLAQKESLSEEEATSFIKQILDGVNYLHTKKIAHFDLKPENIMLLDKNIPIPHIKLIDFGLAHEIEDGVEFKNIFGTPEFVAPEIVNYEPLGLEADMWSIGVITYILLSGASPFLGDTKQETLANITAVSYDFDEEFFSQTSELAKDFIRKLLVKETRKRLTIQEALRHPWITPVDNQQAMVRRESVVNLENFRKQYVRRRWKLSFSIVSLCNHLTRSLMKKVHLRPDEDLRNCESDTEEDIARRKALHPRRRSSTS
Experiment [11] concerns the target Serine/threonine-protein kinase N2 (Homo sapiens) (UniProt Q16513). Put plainly: Inhibition of PKN2 (unknown origin) at 10 uM after 120 mins P33 radiolabeled kinase activity assay.
The target of experiment [12] is T2, Calcium/calmodulin-dependent protein kinase type IV (Homo sapiens) (UniProt Q16566).
T2 sequence (whole entry): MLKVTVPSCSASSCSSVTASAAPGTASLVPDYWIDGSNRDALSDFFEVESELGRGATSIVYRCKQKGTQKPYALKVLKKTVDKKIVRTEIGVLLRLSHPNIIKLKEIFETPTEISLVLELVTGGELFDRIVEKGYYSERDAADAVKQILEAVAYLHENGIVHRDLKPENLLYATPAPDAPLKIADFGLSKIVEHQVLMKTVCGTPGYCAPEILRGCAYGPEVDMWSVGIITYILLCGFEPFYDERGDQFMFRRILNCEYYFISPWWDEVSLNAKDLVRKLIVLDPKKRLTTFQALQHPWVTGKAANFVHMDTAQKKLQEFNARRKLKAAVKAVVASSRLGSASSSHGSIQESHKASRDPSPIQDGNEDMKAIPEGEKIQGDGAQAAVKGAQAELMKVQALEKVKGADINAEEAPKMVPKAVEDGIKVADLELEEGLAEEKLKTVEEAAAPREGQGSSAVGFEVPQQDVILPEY
Put plainly: Inhibition of CAMK4 (unknown origin) at 10 uM after 120 mins P33 radiolabeled kinase activity assay.

For experiment [13], the target named is T3, Dual specificity tyrosine-phosphorylation-regulated kinase 2 (Homo sapiens) (UniProt Q92630).
T3 sequence (whole entry): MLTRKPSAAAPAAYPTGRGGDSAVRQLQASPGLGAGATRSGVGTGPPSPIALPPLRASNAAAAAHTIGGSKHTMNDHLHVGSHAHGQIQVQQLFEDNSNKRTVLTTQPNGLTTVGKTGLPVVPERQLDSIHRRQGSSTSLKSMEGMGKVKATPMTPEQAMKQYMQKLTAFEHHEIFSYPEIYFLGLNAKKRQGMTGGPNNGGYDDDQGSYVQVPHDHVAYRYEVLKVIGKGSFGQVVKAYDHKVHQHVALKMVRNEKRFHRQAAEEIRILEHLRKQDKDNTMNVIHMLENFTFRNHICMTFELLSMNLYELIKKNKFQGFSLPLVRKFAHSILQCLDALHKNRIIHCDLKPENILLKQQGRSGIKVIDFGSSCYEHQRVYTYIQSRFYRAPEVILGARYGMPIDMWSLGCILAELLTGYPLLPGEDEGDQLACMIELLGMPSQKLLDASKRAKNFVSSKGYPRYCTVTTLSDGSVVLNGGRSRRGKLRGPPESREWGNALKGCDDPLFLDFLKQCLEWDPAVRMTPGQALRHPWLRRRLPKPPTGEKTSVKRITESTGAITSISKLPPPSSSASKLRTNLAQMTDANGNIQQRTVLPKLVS
As to the kind of experiment: Inhibition of DYRK2 (unknown origin) at 10 uM after 120 mins P33 radiolabeled kinase activity assay.

By inhibition is commonly meant the change of the read-out against control, counted positive when it falls.

Sequence of Casein kinase I isoform gamma-3 (Homo sapiens) (Q9Y6M4 whole entry, looked up, canonical isoform): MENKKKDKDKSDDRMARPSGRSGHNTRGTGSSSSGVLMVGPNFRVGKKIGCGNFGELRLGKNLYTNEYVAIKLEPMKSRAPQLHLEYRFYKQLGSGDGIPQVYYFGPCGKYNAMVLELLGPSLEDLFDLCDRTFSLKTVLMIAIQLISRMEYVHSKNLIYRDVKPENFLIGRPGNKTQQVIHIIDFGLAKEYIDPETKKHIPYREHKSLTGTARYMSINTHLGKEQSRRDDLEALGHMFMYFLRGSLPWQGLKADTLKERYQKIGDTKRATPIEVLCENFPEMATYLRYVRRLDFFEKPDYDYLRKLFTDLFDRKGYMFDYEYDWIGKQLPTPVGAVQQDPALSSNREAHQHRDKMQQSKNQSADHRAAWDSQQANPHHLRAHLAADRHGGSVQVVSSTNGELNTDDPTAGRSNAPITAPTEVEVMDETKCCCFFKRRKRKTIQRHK
Sequence of Serine/threonine-protein kinase N2 (Homo sapiens) (Q16513 whole entry, looked up): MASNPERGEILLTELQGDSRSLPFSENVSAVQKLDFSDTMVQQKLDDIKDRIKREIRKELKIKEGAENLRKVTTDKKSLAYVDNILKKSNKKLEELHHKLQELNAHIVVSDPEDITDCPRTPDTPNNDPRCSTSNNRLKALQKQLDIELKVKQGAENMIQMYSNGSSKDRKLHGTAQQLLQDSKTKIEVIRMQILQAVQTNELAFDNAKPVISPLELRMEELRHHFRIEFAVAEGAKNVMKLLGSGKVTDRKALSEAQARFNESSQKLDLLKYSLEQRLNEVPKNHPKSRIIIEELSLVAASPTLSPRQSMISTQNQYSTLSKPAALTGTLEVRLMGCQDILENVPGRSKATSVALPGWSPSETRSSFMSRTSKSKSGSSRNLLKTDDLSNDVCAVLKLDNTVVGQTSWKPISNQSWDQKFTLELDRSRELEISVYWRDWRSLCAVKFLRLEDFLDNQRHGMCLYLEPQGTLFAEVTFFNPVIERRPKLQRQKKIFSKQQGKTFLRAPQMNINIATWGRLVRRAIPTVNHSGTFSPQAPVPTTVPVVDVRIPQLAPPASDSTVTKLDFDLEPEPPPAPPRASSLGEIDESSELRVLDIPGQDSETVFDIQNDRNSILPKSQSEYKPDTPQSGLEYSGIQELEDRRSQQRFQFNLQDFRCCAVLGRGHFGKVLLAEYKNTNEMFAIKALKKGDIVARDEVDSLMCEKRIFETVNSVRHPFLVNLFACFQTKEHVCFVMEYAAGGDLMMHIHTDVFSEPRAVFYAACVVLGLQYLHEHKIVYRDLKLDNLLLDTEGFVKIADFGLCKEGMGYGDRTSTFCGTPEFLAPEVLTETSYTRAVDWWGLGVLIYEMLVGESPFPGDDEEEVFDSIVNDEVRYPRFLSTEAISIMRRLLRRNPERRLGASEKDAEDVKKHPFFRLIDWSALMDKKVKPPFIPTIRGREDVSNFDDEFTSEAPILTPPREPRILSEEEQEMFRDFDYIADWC
Sequence of Tyrosine-protein kinase HCK (Homo sapiens) (P08631 2-526 limits assumed): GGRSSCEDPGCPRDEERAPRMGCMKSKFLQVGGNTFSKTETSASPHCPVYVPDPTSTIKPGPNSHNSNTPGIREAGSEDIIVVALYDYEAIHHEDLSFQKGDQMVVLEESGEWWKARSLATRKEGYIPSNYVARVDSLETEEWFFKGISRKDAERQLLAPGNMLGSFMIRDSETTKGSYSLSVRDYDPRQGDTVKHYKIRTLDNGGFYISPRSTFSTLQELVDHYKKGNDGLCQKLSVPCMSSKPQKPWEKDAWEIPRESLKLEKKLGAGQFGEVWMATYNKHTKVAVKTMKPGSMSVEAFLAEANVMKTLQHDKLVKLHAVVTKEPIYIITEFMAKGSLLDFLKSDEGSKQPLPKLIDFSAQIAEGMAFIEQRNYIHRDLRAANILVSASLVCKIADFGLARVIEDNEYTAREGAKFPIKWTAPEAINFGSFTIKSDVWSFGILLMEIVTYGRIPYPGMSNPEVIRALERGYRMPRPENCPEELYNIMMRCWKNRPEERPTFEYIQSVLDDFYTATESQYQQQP
Sequence of Cyclin-dependent kinase 5/CDK5 activator 1 (Homo sapiens) (Q00535 whole entry): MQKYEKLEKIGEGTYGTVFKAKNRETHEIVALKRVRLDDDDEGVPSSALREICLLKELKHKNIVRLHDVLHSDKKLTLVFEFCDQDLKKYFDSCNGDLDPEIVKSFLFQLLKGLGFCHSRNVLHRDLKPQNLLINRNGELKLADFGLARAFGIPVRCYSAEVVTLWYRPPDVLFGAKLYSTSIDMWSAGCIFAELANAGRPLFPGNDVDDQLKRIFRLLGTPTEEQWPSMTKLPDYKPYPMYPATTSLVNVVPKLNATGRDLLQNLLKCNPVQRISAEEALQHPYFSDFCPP
Sequence of Cyclin-dependent kinase 5/CDK5 activator 1 (Homo sapiens) (Q15078 99-307 partner limits assumed): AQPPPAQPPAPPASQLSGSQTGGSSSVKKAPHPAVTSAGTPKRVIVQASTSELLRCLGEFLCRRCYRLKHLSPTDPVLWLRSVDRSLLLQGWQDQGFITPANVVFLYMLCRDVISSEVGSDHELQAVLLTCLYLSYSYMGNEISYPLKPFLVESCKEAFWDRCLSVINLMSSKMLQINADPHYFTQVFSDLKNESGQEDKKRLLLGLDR
Sequence of Calcium/calmodulin-dependent protein kinase type 1 (Homo sapiens) (Q14012 whole entry, looked up): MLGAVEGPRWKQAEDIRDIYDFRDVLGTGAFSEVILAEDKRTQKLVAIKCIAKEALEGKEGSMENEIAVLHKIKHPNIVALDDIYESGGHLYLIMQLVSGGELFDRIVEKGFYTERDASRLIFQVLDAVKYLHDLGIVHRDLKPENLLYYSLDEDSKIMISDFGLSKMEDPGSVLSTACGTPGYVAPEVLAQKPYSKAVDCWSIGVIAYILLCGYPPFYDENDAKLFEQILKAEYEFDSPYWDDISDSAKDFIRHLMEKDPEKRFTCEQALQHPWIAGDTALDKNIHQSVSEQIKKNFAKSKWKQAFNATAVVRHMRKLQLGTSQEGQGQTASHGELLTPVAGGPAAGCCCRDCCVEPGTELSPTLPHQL

Take `COCCNC(=O)c1ccc2c(c1)nc(-c1cnc(-c3ccc(Cl)cc3)[nH]1)n2CCOC`: the inhibition in experiment [1] was found to be 0.42%; in [2] it was 0.14%; in experiment [3] it was 2.42%; in experiment [4] it was 1.34%; in experiment [5], 70%; in experiment [6], 18.5%. Further, the inhibition in experiment [7] worked out at 54.5%; in experiment [8] it was 0.62%; in experiment [9], 5.26%; in experiment [10], 6.92%; in experiment [11] it was 28%; in experiment [12] it was 6.98%. Further, the inhibition in experiment [13] came to 11.5%.
As to `CC(C)(C)c1cc(NC(=O)Nc2ccc(Oc3ccncc3)cc2)no1`, the inhibition in experiment [1] was 3.82%; in experiment [2], 57.3%; in [3], 15%; in [4] it was -0.63%; in experiment [5], 91.1%; in experiment [6], 20.6%. The inhibition in [7] is 99%; in experiment [8] it was 78.7%; in experiment [9] it was -1.68%; in experiment [10], 3.58%; in [11] it was 15.8%; in experiment [12] it was 15.2%. The inhibition in experiment [13] stood at 77.8%.
On to `CS(=O)(=O)c1cccc(Nc2nccc(-c3sc(N4CCOCC4)nc3-c3cccc(NS(=O)(=O)c4c(F)cccc4F)c3)n2)c1`, for which the inhibition in experiment [1] was 5.39%; in experiment [2] it was 94.7%; in [3] it was 96.3%; in [4], -2.5%; in experiment [5], 99.2%; in experiment [6] it was 53.5%. The inhibition in experiment [7] is 96.9%; in experiment [8], 9.35%; in experiment [9], 4.25%; in experiment [10] it was 1.67%; in experiment [11], 26.8%; in [12] it was 29.4%. In addition, the inhibition in experiment [13] stood at 37.4%.
